Laboratory results taken from US9714231B2, “Pyrrolidine GPR40 modulators” (BRISTOL-MYERS SQUIBB COMPANY, priority 2012, dated 2017).
Where a name gives a salt, the structure may show the parent alone.

Biological target: human GPR40 (Homo sapiens, UniProt O14842)
Assay: FDSS-based intracellular calcium assay (Human GRP40 in vitro assay)
Format: cell-based
Parameters: 3xFLAG; expressed in transfected cells
Settings: cells expressing GPR40, intracellular Ca2+ response, FDSS reader; read-out: hGPR40 EC50
Experimental: To conduct the fluorescent imaging plate reader (FLIPR)-based calcium flux assay to measure intracellular Ca^2+ response, cells expressing GPR40 are plated on 384 well plates (BD BIOCOAT® #356697) at a density of 20,000 cells/20 μL medium per well in phenol red and serum-free DMEM (GIBCO® #21063-029) and incubated overnight. Using BD kit #s 80500-310 or -301, the cells are incubated with 20 μL per well of Hank's buffered salt solution with 1.7 mM probenecid and Fluo-3 at 37° C. for 30 min. Compounds are dissolved in DMSO and diluted to desired concentrations with assay buffer and added to the cells as 3× solution (20 μL per well). Run fluorescence/luminescence reader FDSS (Hamamatsu) to read intracellular Ca^2+ response.

human GPR40, sequence (O14842 whole entry): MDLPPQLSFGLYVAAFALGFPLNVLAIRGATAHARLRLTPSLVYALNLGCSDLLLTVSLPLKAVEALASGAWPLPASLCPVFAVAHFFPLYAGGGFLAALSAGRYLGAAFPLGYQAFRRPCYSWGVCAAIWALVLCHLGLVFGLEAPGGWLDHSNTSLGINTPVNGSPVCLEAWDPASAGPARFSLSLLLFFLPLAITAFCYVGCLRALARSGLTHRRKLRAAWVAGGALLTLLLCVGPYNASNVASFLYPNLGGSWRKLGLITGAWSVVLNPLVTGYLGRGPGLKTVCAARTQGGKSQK

| Structure (SMILES) | EC50 [nM] |
| --- | --- |
| COc1cc(N2CCC(Oc3ccc(N4C[C@H](OC)C[C@@H]4CC(=O)O)cc3)CC2)c(Cl)cn1 [Example 87, 2-((2R,4R)-1-(4-((1-(5-Chloro-2-methoxypyridin-4-yl)piperidin-4-yl)oxy)phenyl)-4-methoxypyrrolidin-2-yl)acetic acid, TFA] | 350 |
| COc1cc(N2CCC(Oc3ccc(N4C[C@H](OC)[C@@H](C)[C@@H]4CC(=O)O)cn3)CC2)c(C2=CCCC2(C)C)cn1 [Example 152, 2-((2S,3S,4R)-1-(6-((1-(5-(5,5-Dimethylcyclopent-1-en-1-yl)-2-methoxypyridin-4-yl)piperidin-4-yl)oxy)pyridin-3-yl)-4-methoxy-3-methylpyrrolidin-2-yl)acetic acid, HCl] | 68 |
| COc1cc(N2CCC(Oc3cnc(N4C[C@H](OC)[C@@H](C)[C@@H]4CC(=O)O)nc3)C(C)C2)c(Cl)cn1 (stereo partly drawn) [Example 170, 2-((2S,3S,4R)-1-(5-(((3,4-trans)-1-(5-Chloro-2-methoxypyridin-4-yl)-3-methylpiperidin-4-yl)oxy)pyrimidin-2-yl)-4-methoxy-3-methylpyrrolidin-2-yl)acetic acid] | 1700 |
| CCOc1cccc(N2CCC(Oc3ccc(N4C[C@H](C(F)(F)F)C[C@@H]4CC(=O)O)cc3)CC2)c1 [Example 21, 2-((2R,4R)-1-(4-((1-(3-Ethoxyphenyl)piperidin-4-yl)oxy)phenyl)-4-(trifluoromethyl)pyrrolidin-2-yl)acetic acid, HCl] | 850 |
| COc1cc(N2CCC(Oc3ncc(N4C[C@H](F)[C@@H](C)[C@@H]4CC(=O)O)cc3F)C(C)C2)c(Cl)cn1 (stereo partly drawn) [Example 164, 2-((2S,3S,4R)-1-(6-(((3,4-trans)-1-(5-Chloro-2-methoxypyridin-4-yl)-3-methylpiperidin-4-yl)oxy)-5-fluoropyridin-3-yl)-4-fluoro-3-methylpyrrolidin-2-yl)acetic acid] | 110 |
| COc1cc(N2CC[C@@H](Oc3ccc(N4C[C@H](OC)[C@@H](C)[C@@H]4CC(=O)O)cn3)[C@H](C)C2)c(C2=CCCC2(C)C)cn1 [Example 153, 2-((2S,3S,4R)-1-(6-(((3R,4R)-1-(5-(5,5-Dimethylcyclopent-1-en-1-yl)-2-methoxypyridin-4-yl)-3-methylpiperidin-4-yl)oxy)pyridin-3-yl)-4-methoxy-3-methylpyrrolidin-2-yl)acetic acid, HCl] | 200 |
| CCOc1ccc(F)c(N2CCC(Oc3ccc(N4C[C@H](OC)[C@@H](C)[C@@H]4CC(=O)O)cc3F)CC2)c1 [Example 101, 2-((2S,3S,4R)-1-(4-((1-(5-Ethoxy-2-fluorophenyl)piperidin-4-yl)oxy)-3-fluorophenyl)-4-methoxy-3-methylpyrrolidin-2-yl)acetic acid] | 180 |
| COc1cc(N2CCC(Oc3ncc(N4C[C@H](OC)[C@@H](C)[C@H]4CC(=O)O)cc3F)C(C)C2)c(Cl)cn1 (stereo partly drawn) [Example 168, 2-((2R,3S,4R)-1-(6-(((3,4-trans)-1-(5-Chloro-2-methoxypyridin-4-yl)-3-methylpiperidin-4-yl)oxy)-5-fluoropyridin-3-yl)-4-methoxy-3-methylpyrrolidin-2-yl)acetic acid] | 500 |
| CCOc1ccc(F)c(N2CCC(Oc3ccc(N4C[C@H](Oc5cccc(C(F)(F)F)c5)C[C@@H]4CC(=O)O)cc3)CC2)c1 [Example 71, 2-((2R,4R)-1-(4-(1-(5-Ethoxy-2-fluorophenyl)piperidin-4-yloxy)phenyl)-4-(3-(trifluoromethyl)phenoxy)pyrrolidin-2-yl)acetic acid] | 250 |
| CCOc1ccc(F)c(N2CCC(Oc3ccc(N4C[C@H](OC)[C@@H](C)[C@@H]4CC(=O)O)c(F)c3)CC2)c1 [Example 114, 2-((2S,3S,4R)-1-(4-((1-(5-Ethoxy-2-fluorophenyl)piperidin-4-yl)oxy)-2-fluorophenyl)-4-methoxy-3-methylpyrrolidin-2-yl)acetic acid] | 320 |
| CCOc1ccc(F)c(N2CCC(Oc3ccc(N4C[C@H](OC)[C@@H](C)[C@@H]4CC(=O)O)cn3)CC2)c1 [Example 95, 2-((2S,3S,4R)-1-(6-((1-(5-Ethoxy-2-fluorophenyl)piperidin-4-yl)oxy)pyridin-3-yl)-4-methoxy-3-methylpyrrolidin-2-yl)acetic acid, TFA] | 510 |

Continued, values first:

| EC50 [nM] | Structure (SMILES) |
| --- | --- |
| 4700 | COc1cc(N2CCC(Oc3ccc(N4C[C@@H](OC)[C@H](C)[C@H]4CC(=O)O)cc3)C(C)C2)c(Cl)cn1 (stereo partly drawn) [Example 131, 2-((2R,3R,4S)-1-(4-(((3,4-trans)-1-(5-Chloro-2-methoxypyridin-4-yl)-3-methylpiperidin-4-yl)oxy)phenyl)-4-methoxy-3-methylpyrrolidin-2-yl)acetic acid] |
| 77 | COc1ccc(F)c(N2CCC(Oc3ccc(N4C[C@H](F)C[C@@H]4CC(=O)O)cc3)C(C)C2)c1 (stereo partly drawn) [Example 25, 2-((2S,4R)-4-Fluoro-1-(4-((1-(2-fluoro-5-methoxyphenyl)-3-methylpiperidin-4-yl)oxy)phenyl)pyrrolidin-2-yl)acetic acid, TFA] |
| 1100 | CCc1cc(F)c(N2CCC(Oc3ccc(N4C[C@H](OC)C[C@@H]4CC(=O)O)cc3)CC2)cc1OC [Example 29, 2-((2R,4R)-1-(4-((1-(4-Ethyl-2-fluoro-5-methoxyphenyl)piperidin-4-yl)oxy)phenyl)-4-methoxypyrrolidin-2-yl)acetic acid, TFA] |
| 240 | COc1ccc(C)c(N2CCC(Oc3ccc(N4C[C@H](OC)C[C@@H]4CC(=O)O)cc3)C(C)C2)c1 (single isomer, unassigned) [Example 64, Isomer 1] |
| 280 | COc1ccc(F)c(N2CCC(Oc3ccc(N4C[C@H](C(F)(F)F)C[C@@H]4CC(=O)O)cn3)CC2)c1 [Example 49, 2-((2R,4R)-1-(6-((1-(2-Fluoro-5-methoxyphenyl)piperidin-4-yl)oxy)pyridin-3-yl)-4-(trifluoromethyl)pyrrolidin-2-yl)acetic acid] |
| 66 | COc1ccc(F)c(N2CCC(Oc3ccc(N4CC(F)(F)C[C@@H]4CC(=O)O)cc3)CC2)c1 [Example 5, (S)-2-(4,4-Difluoro-1-(4-((1-(2-fluoro-5-methoxyphenyl)piperidin-4-yl)oxy)phenyl)pyrrolidin-2-yl)acetic acid, TFA] |
| 290 | CCOc1ccc(F)c(N2CCC(Oc3ccc(N4C[C@H](OC)[C@@H](C)[C@@H]4CC(=O)O)c(F)c3)C(C)C2)c1 (stereo partly drawn) [Example 113, 2-((2S,3S,4R)-1-(4-(((3,4-trans)-1-(5-Ethoxy-2-fluorophenyl)-3-methylpiperidin-4-yl)oxy)-2-fluorophenyl)-4-methoxy-3-methylpyrrolidin-2-yl)acetic acid] |
| 450 | COc1cc(N2CCC(Oc3ccc(N4C[C@H](OC)[C@@H](C)[C@@H]4CC(=O)O)cc3)C(C)C2)c(F)cc1F (single isomer, unassigned) [Example 169, Isomer 2] |
| 1400 | CCOc1ccc(F)c(N2CCC(Oc3ccc(N4C[C@H](Oc5ccccc5C#N)C[C@@H]4CC(=O)O)cc3)CC2)c1 [Example 66, 2-((2R,4R)-4-(2-Cyanophenoxy)-1-(4-(1-(5-ethoxy-2-fluorophenyl)piperidin-4-yloxy)phenyl)pyrrolidin-2-yl)acetic acid] |
| 1200 | CCOc1ccc(F)c(N2CCC(Oc3ccc(N4C[C@H](Oc5ccc(C)cc5)C[C@@H]4CC(=O)O)cc3)CC2)c1 [Example 74, 2-((2R,4R)-1-(4-(1-(5-Ethoxy-2-fluorophenyl)piperidin-4-yloxy)phenyl)-4-(p-tolyloxy)pyrrolidin-2-yl)acetic acid] |
| 160 | CCO[C@H]1CN(c2ccc(OC3CCN(c4cc(OC)ncc4Cl)CC3C)cc2)[C@@H](CC(=O)O)[C@@H]1C (stereo partly drawn) [Example 158, 2-((2S,3S,4R)-1-(4-(((3,4-trans)-1-(5-Chloro-2-methoxypyridin-4-yl)-3-methylpiperidin-4-yl)oxy)phenyl)-4-ethoxy-3-methylpyrrolidin-2-yl)acetic acid, TFA] |
| 240 | CCOc1ccc(F)c(N2[C@H](C)C[C@H](Oc3ccc(N4C[C@H](C(F)(F)F)C[C@@H]4CC(=O)O)cc3)C[C@@H]2C)c1 [Example 42, 2-((2R,4R)-1-(4-(((2R,4R,6S)-1-(5-Ethoxy-2-fluorophenyl)-2,6-dimethylpiperidin-4-yl)oxy)phenyl)-4-(trifluoromethyl)pyrrolidin-2-yl)acetic acid, HCl] |
| 810 | CCOc1ccc(F)c(N2CCC(Oc3ccc(N4C[C@H](c5cnn(C)c5)C[C@@H]4CC(=O)O)cc3)CC2)c1 [Example 126, 2-((2R,4S)-1-(4-((1-(5-Ethoxy-2-fluorophenyl)piperidin-4-yl)oxy)phenyl)-4-(1-methyl-1H-pyrazol-4-yl)pyrrolidin-2-yl)acetic acid, TFA] |
| 190 | CCOc1ccc(F)c(N2CCC(Oc3ccc(N4C[C@H](OC)[C@@H](C5CC5)[C@@H]4CC(=O)O)cc3)CC2)c1 [Example 90, 2-((2S,3S,4R)-3-Cyclopropyl-1-(4-((1-(5-ethoxy-2-fluorophenyl)piperidin-4-yl)oxy)phenyl)-4-methoxypyrrolidin-2-yl)acetic acid, TFA] |
| 240 | CCOc1ccc(F)c(N2CCC(Oc3ccc(N4C[C@H](c5cccc(C(F)(F)F)c5)C[C@@H]4CC(=O)O)cc3)CC2)c1 [Example 122, 2-((2R,4S)-1-(4-((1-(5-Ethoxy-2-fluorophenyl)piperidin-4-yl)oxy)phenyl)-4-(3-(trifluoromethyl)phenyl)pyrrolidin-2-yl)acetic acid, TFA] |
| 120 | COc1ccc(C)c(N2CCC(Oc3ccc(N4C[C@H](OC)C[C@@H]4CC(=O)O)cc3)C(C)C2)c1 (single isomer, unassigned) [Example 64, Isomer 2] |
